# Data published in PubChem BioAssay (NCI).
#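 1) Cells in 96-well plates. 2) Compound, 48 h, 5 concentrations. 3) Linear interpolation between surrounding doses. 4) Unreached endpoint = highest concentration. TGI is the concentration that stops growth completely.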
# Experiments:
# Experiment in all cases: NCI tumour cell line growth inhibition, 48 h
# [1] = test system: 786-0 renal
# [2] = test system: A498 renal
# [3] = test system: A549 NSCLC
# [4] = test system: ACHN renal
# [5] = test system: CAKI-1 renal
# [6] = test system: CCRF-CEM leukemia
# [7] = test system: COLO 205 colon
# [8] = test system: DLD-1 colon
# [9] = test system: DMS 114 small cell lung
# [10] = test system: DMS 273 small cell lung
# [11] = test system: EKVX NSCLC
# [12] = test system: HCC-2998 colon
# [13] = test system: HCT-116 colon
# [14] = test system: HCT-15 colon
# [15] = test system: HL-60(TB) leukemia
# [16] = test system: HOP-18 NSCLC
# [17] = test system: HOP-62 NSCLC
# [18] = test system: HT29 colon
# [19] = test system: IGROV1 ovarian
# [20] = test system: K-562 leukemia
# [21] = test system: KM12 colon
# [22] = test system: KM20L2 colon
# [23] = test system: LOX IMVI melanoma
# [24] = test system: LXFL 529 NSCLC
# [25] = test system: M14 melanoma
# [26] = test system: M19-MEL melanoma
# [27] = test system: MALME-3M melanoma
# [28] = test system: MOLT-4 leukemia
# [29] = test system: NCI-H226 lung
# [30] = test system: NCI-H23 lung
# [31] = test system: NCI-H460 lung
# [32] = test system: NCI-H522 lung
# [33] = test system: OVCAR-3 ovarian
# [34] = test system: OVCAR-4 ovarian
# [35] = test system: OVCAR-5 ovarian
# [36] = test system: OVCAR-8 ovarian
# [37] = test system: RPMI-8226 leukemia
# [38] = test system: RXF 393 renal
# [39] = test system: RXF-631 renal
# [40] = test system: SF-268 CNS
# [41] = test system: SF-295 CNS
# [42] = test system: SF-539 CNS
# [43] = test system: SK-MEL-2 melanoma
# [44] = test system: SK-MEL-28 melanoma
# [45] = test system: SK-MEL-5 melanoma
# [46] = test system: SK-OV-3 ovarian
# [47] = test system: SN12C renal
# [48] = test system: SNB-19 CNS
# [49] = test system: SNB-75 CNS
# [50] = test system: SNB-78 CNS
# [51] = test system: SR leukemia
# [52] = test system: SW-620 colon
# [53] = test system: TK-10 renal
# [54] = test system: U251 CNS
# [55] = test system: UACC-257 melanoma
# [56] = test system: UACC-62 melanoma
# [57] = test system: UO-31 renal
# [58] = test system: XF 498 CNS
# [59] = test system: HOP-92 NSCLC
# [60] = test system: MCF7 breast
# [61] = test system: NCI/ADR-RES ovarian
# [62] = test system: P388 leukemia
# [63] = test system: P388/ADR leukemia
# [64] = test system: SN12K1 renal
structure (smiles),measurement,setting,value
CC(=O)Oc1ccc(O)c2c1CCCC2,TGI,[1],> 100 µM
same,TGI,[2],> 31.6 µM
same,TGI,[3],> 100 µM
same,TGI,[4],29.2 µM
same,TGI,[5],> 73.4 µM
same,TGI,[6],47.6 µM
same,TGI,[7],55.6 µM
same,TGI,[8],48.5 µM
same,TGI,[9],> 54 µM
same,TGI,[10],> 64.1 µM
same,TGI,[11],> 100 µM
same,TGI,[12],> 100 µM
same,TGI,[13],32.9 µM
same,TGI,[14],18.4 µM
same,TGI,[15],14.1 µM
same,TGI,[16],> 100 µM
same,TGI,[17],> 100 µM
same,TGI,[18],> 100 µM
same,TGI,[19],> 100 µM
same,TGI,[20],54.6 µM
same,TGI,[21],> 100 µM
same,TGI,[22],> 100 µM
same,TGI,[23],36.3 µM
same,TGI,[24],31.2 µM
same,TGI,[25],> 68.2 µM
same,TGI,[26],18.4 µM
same,TGI,[27],> 61.2 µM
same,TGI,[28],43.5 µM
same,TGI,[29],> 100 µM
same,TGI,[30],> 91.1 µM
same,TGI,[31],> 31.6 µM
same,TGI,[32],18.1 µM
same,TGI,[33],25.9 µM
same,TGI,[34],33.2 µM
same,TGI,[35],> 100 µM
same,TGI,[36],32.9 µM
same,TGI,[37],66.4 µM
same,TGI,[38],> 57.5 µM
same,TGI,[39],> 100 µM
same,TGI,[40],> 100 µM
same,TGI,[41],> 100 µM
same,TGI,[42],> 100 µM
same,TGI,[43],> 100 µM
same,TGI,[44],> 100 µM
same,TGI,[45],> 63.3 µM
same,TGI,[46],> 100 µM
same,TGI,[47],> 65.9 µM
same,TGI,[48],> 100 µM
same,TGI,[49],> 100 µM
same,TGI,[50],40.2 µM
same,TGI,[51],16.3 µM
same,TGI,[52],39.6 µM
same,TGI,[53],49.6 µM
same,TGI,[54],> 100 µM
same,TGI,[55],> 91.1 µM
same,TGI,[56],> 100 µM
same,TGI,[57],> 64.5 µM
same,TGI,[58],30 µM
CCCCCCCCC1=CCC(CN(C)C)C1=O (configuration not stated),TGI,[2],> 58.4 µM
same,TGI,[3],> 100 µM
same,TGI,[6],> 60.1 µM
same,TGI,[7],33.9 µM
same,TGI,[8],35 µM
same,TGI,[9],34.4 µM
same,TGI,[10],35.3 µM
same,TGI,[11],48.1 µM
same,TGI,[12],27.7 µM
same,TGI,[13],36.5 µM
same,TGI,[14],33.7 µM
same,TGI,[15],33.8 µM
same,TGI,[17],> 31.6 µM
same,TGI,[59],31 µM
same,TGI,[18],35.4 µM
same,TGI,[19],35.9 µM
same,TGI,[20],59 µM
same,TGI,[21],38 µM
same,TGI,[22],47.4 µM
same,TGI,[23],33.7 µM
same,TGI,[26],32.3 µM
same,TGI,[27],32.3 µM
same,TGI,[60],13.6 µM
same,TGI,[28],48.2 µM
same,TGI,[29],> 76.3 µM
same,TGI,[30],39.2 µM
same,TGI,[31],26.1 µM
same,TGI,[32],31.3 µM
same,TGI,[61],41.7 µM
same,TGI,[33],34.3 µM
same,TGI,[34],50.8 µM
same,TGI,[35],> 72.4 µM
same,TGI,[36],34.9 µM
same,TGI,[62],46.5 µM
same,TGI,[63],15 µM
same,TGI,[37],4.2 µM
same,TGI,[38],36 µM
same,TGI,[40],34.7 µM
same,TGI,[41],> 60.7 µM
same,TGI,[42],36.9 µM
same,TGI,[43],46.1 µM
same,TGI,[44],38.2 µM
same,TGI,[45],41.4 µM
same,TGI,[46],> 100 µM
same,TGI,[47],32.4 µM
same,TGI,[64],32.1 µM
same,TGI,[48],> 79 µM
same,TGI,[49],32.1 µM
same,TGI,[50],46.4 µM
same,TGI,[52],36.6 µM
same,TGI,[54],32.8 µM
same,TGI,[55],45.7 µM
same,TGI,[56],33.2 µM
same,TGI,[57],39.2 µM
